Patent publication US10239933B2, “Compositions and methods for modulating thrombin generation” (The Children's Hospital of Philadelphia, priority 2011, dated 2019)
Entries after “also recorded” stand apart in the source; their conditions may differ. Read-outs that look alike come from different tables or passages of the source. One block for each molecule: values may come before it. Ends that are not written are not given here. * marks the point of attachment. X2 = CN(c1ccccc1)c1ccc2c(-c3ccccc3S(=O)(=O)N3CCC(C(=O)NCCCCCN4C(=O)CC(*)C4=O)CC3)c3ccc(=[N+](C)c4ccccc4)cc-3oc2c1; X1 = O=C1OC2(c3cc(F)c(O)cc3Oc3cc(O)c(F)cc32)c2ccc(N3C(=O)CC(*)C3=O)cc21

Assays:
[1] = biological target: T1, FV-810 (Homo sapiens, UniProt P12259, DEL839-1519); test: Fluorescence anisotropy, direct binding of OG488-BR to FV-810
T1 construct: amino acids 1-28 are a signal peptide that is cleaved and numbering begins at residue 29; made in house

[2] = biological target: T2, FV-810^QQ (Homo sapiens, UniProt P12259, DEL839-1519/R1573Q/R737Q); test: Fluorescence anisotropy, binding of OG488-BR to FV-810^QQ; conditions: after incubation with thrombin
T2 construct: amino acids 1-28 are a signal peptide that is cleaved and numbering begins at residue 29; made in house

[3] = biological target: T3, rFVa (Homo sapiens, UniProt P12259); test: Fluorescence anisotropy, direct binding of OG488-BR to rFVa; conditions: fluorescently labeled BR peptide, rFVa titrated
T3 construct: thrombin rapidly cleaves Factor V at Arg709 to produce heavy chain (HC); rapidly cleaves at Arg1018 and Arg1545 to produce light chain (LC); made in house
T3 sequence (P12259 29-737 limits assumed): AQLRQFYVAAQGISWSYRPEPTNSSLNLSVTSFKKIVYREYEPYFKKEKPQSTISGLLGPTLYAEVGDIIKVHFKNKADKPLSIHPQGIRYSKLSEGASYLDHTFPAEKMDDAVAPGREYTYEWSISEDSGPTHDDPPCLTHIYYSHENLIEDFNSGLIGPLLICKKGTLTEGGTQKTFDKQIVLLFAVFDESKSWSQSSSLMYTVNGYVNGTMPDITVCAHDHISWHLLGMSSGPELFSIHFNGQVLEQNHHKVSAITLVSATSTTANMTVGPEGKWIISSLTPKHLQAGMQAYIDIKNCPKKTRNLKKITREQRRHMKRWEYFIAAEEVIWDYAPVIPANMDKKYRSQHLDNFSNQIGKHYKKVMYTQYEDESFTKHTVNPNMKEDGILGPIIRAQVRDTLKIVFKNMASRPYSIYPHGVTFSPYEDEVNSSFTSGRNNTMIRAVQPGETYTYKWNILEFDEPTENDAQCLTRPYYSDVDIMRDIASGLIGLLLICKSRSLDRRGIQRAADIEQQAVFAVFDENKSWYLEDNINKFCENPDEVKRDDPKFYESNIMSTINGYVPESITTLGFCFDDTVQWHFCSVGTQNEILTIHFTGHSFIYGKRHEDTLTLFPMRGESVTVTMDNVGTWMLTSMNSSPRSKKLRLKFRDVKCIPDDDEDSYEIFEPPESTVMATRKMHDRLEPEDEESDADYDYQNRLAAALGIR
T3 sequence (P12259 1574-2224 limits assumed): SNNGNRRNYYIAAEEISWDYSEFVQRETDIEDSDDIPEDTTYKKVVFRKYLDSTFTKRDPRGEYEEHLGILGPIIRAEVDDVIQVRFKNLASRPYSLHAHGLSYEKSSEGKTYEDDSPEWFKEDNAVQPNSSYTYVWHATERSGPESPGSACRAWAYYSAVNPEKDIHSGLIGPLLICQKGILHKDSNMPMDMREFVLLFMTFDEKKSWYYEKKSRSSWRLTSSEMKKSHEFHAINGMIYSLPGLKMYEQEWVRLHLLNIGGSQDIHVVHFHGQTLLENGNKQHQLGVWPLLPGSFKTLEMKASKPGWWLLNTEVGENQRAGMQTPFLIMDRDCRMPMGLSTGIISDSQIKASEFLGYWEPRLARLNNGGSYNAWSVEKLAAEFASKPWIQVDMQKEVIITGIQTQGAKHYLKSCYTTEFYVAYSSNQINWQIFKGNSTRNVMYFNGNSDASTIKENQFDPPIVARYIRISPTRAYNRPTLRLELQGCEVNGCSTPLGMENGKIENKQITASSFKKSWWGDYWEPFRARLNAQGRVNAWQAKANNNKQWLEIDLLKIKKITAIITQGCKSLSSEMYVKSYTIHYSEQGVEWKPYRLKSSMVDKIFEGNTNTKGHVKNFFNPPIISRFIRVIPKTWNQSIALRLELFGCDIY

[4] = biological target: T4, FV-810^R709Q (Homo sapiens, UniProt P12259, DEL839-1519/R737Q); test: Fluorescence anisotropy, binding of OG488-BR to FV-810^R709Q; conditions: after incubation with thrombin
T4 construct: amino acids 1-28 are a signal peptide that is cleaved and numbering begins at residue 29; made in house

[5] = biological target: T5, FV-810^R1545Q (Homo sapiens, UniProt P12259, DEL839-1519/R1573Q); test: Fluorescence anisotropy, binding of OG488-BR to FV-810^R1545Q
T5 construct: amino acids 1-28 are a signal peptide that is cleaved and numbering begins at residue 29; made in house

[6] = biological target: T1, FV-810; test: Analytical ultracentrifugation (sedimentation velocity) of QSY7-BR with FV-810; assay type: binding
Method: Analytical ultracentrifugation of QSY7 C5-maleimide-modified BR (QSY7-BR) was performed in a Beckman Optima XL-I analytical ultracentrifuge using absorbance optics. Sedimentation velocity was measured at 25,000 or 45,000 rpm with two-sector cells in an An-60 Ti rotor at 20° C. Sedimentation of QSY7-BR was followed measuring absorbance at 560 nm in cells containing 5 μM QSY7-BR alone or with 7 μM FV-810 or rFVa in 20 mM HEPES, 150 mM NaCl, and 2 mM CaCl2, pH 7.4. Sedimentation coefficients and molecular weights were determined by g(s*) analysis performed using DCDT+ (Philo, J. S. (2000) Anal. Biochem., 279:151-163).

[7] = biological target: T6, FVDT (Homo sapiens, UniProt P12259, DEL839-1519); test: Direct binding of TFPI to FVDT (FIG. 7C)
T6 construct: amino acids 1-28 are a signal peptide that is cleaved and numbering begins at residue 29; made in house

[8] = biological target: T6, FVDT; test: Inhibition of FVDT by the FVBR or TFPI peptide (FIG. 7B); assay type: biochemical
[9] = biological target: T1, FV-810; test: Clotting assay, FV-deficient plasma supplemented with FV-810 (FV-DT); assay type: biochemical; conditions: FV-deficient plasma; FIG. 8A: 0.25 nM FV-810, peptides at 5 μM
Method: (§1) Residual clotting activity of Factor V variants was determined by prothrombin time-based clotting assays. Factor V variants were incubated with either the FVBR or s46 peptide, after which the mixtures were mixed with Factor V deficient plasma and clotting times were measured. Where indicated, the Factor V variants were activated by pre-incubation with thrombin prior to addition of the peptides.
(§2) FV derivatives (500 nM) were prepared in assay buffer. Where noted, FV derivatives were pretreated with 10 nM thrombin for 15 minutes at 37° C., followed by the addition of 15 nM hirudin. Samples were diluted to 0.25 nM in assay buffer with 0.1% BSA, and the specific clotting activity was measured in FV-deficient plasma (George King Bio-Medical, Overland Park, Kans.) with TriniCLOT PT Excel (Tcoag, Wicklow, Ireland) as described (Camire et al. (1998) Biochemistry 37:11896-11906). The data are presented as the means±S.D.

[10] = biological target: T1, FV-810; test: Displacement of OG488-BR from preformed OG488-BR/FV-810 complex (fluorescence anisotropy); assay type: binding
[11] = biological target: T7, FXa/FV-DT (Homo sapiens, UniProt P12259, DEL839-1519); test: Prothrombin activation assay, prothrombinase containing FV-810 (FV-DT); assay type: biochemical; conditions: peptide titrated; 1.4 μM prothrombin, 50 μM PCPS, 25° C.
T7 construct: amino acids 1-28 are a signal peptide that is cleaved and numbering begins at residue 29; made in house
Method: Steady-state initial velocities of prothrombin cleavage were determined discontinuously at 25° C. by measuring the initial rate of thrombin formation. Reaction mixtures contained liposomes (75:25, PC:PS), prothrombin, the indicated Factor V variants, and the Factor V peptides FVBR or s46. The reactions were initiated by adding Factor Xa, and thrombin generation was determined at multiple time points by monitoring the cleavage of the chromogenic thrombin substrate S-2238.
Steady-state initial velocities of prothrombin cleavage were determined discontinuously at 25° C. as described (Camire, R. M. (2002) J. Biol. Chem., 277:37863-37870). Reaction mixtures containing PCPS (50 μM), DAPA (3 μM), prothrombin (1.4 μM), and either rFVa or the indicated FV-810 derivatives were incubated with B-domain peptides (0-10 μM) in assay buffer. […] Prothrombin activation was determined using the chromogenic thrombin substrate 52238 as described (Camire, R. M. (2002) J. Biol. Chem., 277:37863-37870).

[12] = biological target: T3, rFVa; test: Clotting assay, FV-deficient plasma supplemented with rFVa; assay type: biochemical; conditions: FIG. 8B: 0.25 nM rFVa, peptides at 5 μM
Method: as §1, §2

T1 sequence (P12259 with tags, fused parts or gaps DEL839-1519): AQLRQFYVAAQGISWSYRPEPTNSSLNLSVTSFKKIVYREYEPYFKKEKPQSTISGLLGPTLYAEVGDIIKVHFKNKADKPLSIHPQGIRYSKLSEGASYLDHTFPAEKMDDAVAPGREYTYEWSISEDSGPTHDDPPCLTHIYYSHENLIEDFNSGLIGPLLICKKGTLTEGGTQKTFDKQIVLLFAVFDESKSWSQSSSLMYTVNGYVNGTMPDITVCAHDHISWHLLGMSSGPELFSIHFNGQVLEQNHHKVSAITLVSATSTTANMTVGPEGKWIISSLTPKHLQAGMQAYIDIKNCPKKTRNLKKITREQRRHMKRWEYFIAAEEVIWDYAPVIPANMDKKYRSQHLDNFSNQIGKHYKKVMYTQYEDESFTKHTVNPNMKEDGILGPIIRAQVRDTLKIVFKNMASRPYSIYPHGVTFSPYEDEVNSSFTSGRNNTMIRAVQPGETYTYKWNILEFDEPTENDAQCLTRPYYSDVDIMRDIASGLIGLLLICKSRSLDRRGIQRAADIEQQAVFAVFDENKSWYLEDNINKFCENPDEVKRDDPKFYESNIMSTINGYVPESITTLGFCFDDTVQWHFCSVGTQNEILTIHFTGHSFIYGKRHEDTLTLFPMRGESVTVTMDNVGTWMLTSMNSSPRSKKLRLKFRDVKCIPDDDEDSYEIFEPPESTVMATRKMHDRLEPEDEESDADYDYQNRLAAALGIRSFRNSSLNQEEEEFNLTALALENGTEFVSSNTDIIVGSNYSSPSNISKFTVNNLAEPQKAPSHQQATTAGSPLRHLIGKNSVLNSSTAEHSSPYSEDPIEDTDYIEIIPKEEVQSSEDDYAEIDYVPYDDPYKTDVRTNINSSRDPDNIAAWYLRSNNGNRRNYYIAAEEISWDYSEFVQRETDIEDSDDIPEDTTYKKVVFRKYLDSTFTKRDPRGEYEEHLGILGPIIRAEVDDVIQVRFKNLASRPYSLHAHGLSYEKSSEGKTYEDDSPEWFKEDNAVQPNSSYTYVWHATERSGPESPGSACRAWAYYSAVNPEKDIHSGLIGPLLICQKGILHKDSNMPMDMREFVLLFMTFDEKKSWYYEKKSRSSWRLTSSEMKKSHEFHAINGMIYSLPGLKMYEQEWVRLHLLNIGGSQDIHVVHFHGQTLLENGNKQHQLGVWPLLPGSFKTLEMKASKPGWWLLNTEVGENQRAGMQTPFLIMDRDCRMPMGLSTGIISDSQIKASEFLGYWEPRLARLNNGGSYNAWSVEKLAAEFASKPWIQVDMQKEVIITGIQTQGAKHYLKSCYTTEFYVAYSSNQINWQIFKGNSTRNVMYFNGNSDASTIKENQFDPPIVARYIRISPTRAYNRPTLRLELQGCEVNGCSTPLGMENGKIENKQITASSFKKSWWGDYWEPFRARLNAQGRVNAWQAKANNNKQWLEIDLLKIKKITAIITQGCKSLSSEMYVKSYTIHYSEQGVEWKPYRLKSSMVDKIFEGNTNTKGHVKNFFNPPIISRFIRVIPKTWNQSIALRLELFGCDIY
T6 sequence (P12259 with tags, fused parts or gaps DEL839-1519): as above
T4 sequence (P12259 with tags, fused parts or gaps R737Q/DEL839-1519): as the sequence (P12259 with tags, fused parts or gaps DEL839-1519) above, with R709Q counted along it
T5 sequence (P12259 with tags, fused parts or gaps DEL839-1519/R1573Q): as the sequence (P12259 with tags, fused parts or gaps DEL839-1519) above, with R864Q counted along it
T7 sequence (P12259 with tags, fused parts or gaps DEL839-1519): as the sequence (P12259 with tags, fused parts or gaps DEL839-1519) above
T2 sequence (P12259 with tags, fused parts or gaps R737Q/DEL839-1519/R1573Q): as the sequence (P12259 with tags, fused parts or gaps DEL839-1519) above, with R709Q, R864Q counted along it

Molecule: H-C(X2)SRAWGESTPLANKPGKQSGHPKFPRVRHKSLQVRQDGGKSRLKKSQFLIKTRKKKKEK-OH [QSY7-BR]
sedimentation coefficient (s^020,w) ([6]; 5 μM QSY7-BR alone, absence of FV-810): 0.98 S (Svedberg) | sedimentation coefficient ([6]; 5 μM QSY7-BR in the presence of 7 μM FV-810): 9.8 S (Svedberg)

Molecule: TFPI peptide: C-terminal tail peptide of tissue factor pathway inhibitor (amino acids 240-265, SEQ ID NO: 4) (KKGFIQRISKGGLIKTKRKRKKQRVK; peptide from human tissue factor pathway inhibitor)
direct binding to FVDT [7]: directly bound | inhibition of FVDT [8]: inhibited FVBT in a manner similar to FVBR

Molecule: bovine BR: Bos taurus FV basic region Ser938-Lys996 (SRTWGENIPFKNSHGKQSGHPTFLVTRRKPLQDRQDRRNSRLKEGLPLIRTRRKKKEEK)
Kd ([10]; 30 nM OG488-BR, 20 nM FV-810, 50 μM PCPS, 25° C., assuming stoichiometry of 1 mol of FV-810/mol of BR peptide): 28.3 ± 0.6 nM | weaker binding to FV-810 than the human BR ([10]; displacement binding experiments): ~10 fold | inhibition of clotting activity of FV-810 (FV-DT) [9]: inhibited | inhibition of prothrombin activation with FV-810 (FV-DT) [11]: inhibited

Molecule: platelet factor 4: cationic platelet factor 4 [reference compound]
inhibition of clotting activity of FV-810 (FV-DT) [9]: neither low molecular weight poly-L-lysine (average Mr=1000-5000) (FIG. 8A) nor the cationic platelet factor 4 affected FV-810 activity

Molecule: poly-L-lysine [reference compound]
inhibition of clotting activity of FV-810 (FV-DT) [9]: neither low molecular weight poly-L-lysine (average Mr=1000-5000) (FIG. 8A) nor the cationic platelet factor 4 affected FV-810 activity

Continued, in another order:

binding of OG488-BR to FV-810 with EDTA ([1]; 10 mM EDTA added to the buffer): no binding was observed | stoichiometry n at saturation ([1]; 20 or 40 nM OG488-BR, 50 μM PCPS, 25° C.): 1.27±0.02 mol of FV-810/mol of OG488-BR | Kd ([1]; FV-810 pretreated with buffer, 30 nM OG488-BR, 50 μM PCPS, assuming n=1): 2.1 ± 0.3 nM | Kd ([1]; FV-810 titrated into 20 or 40 nM OG488-BR, 50 μM PCPS, 25° C.): 2.07 ± 0.2 nM | Kd, OG488-BR binding to thrombin-treated FV-810^QQ [2]: still bound | binding to rFVa/FVa [3]: no detectable binding | Kd ([5]; after incubation with thrombin, read-out: Kd, OG488-BR binding to thrombin-cleaved FV-810^R1545Q): 30 nM | Kd ([5]; pretreated with buffer, assuming n=1, read-out: Kd, OG488-BR binding to FV-810^R1545Q): 2 nM
Molecule: H-C(X1)SRAWGESTPLANKPGKQSGHPKFPRVRHKSLQVRQDGGKSRLKKSQFLIKTRKKKKEK-OH [OG488-BR]
binding of OG488-BR to thrombin-cleaved FV-810 ([1]; after incubation with thrombin): did not; also recorded: neither FV-810 nor FV-810^R709Q had detectable binding | binding of OG488-BR to thrombin-cleaved FV-810^R709Q [4]: did not; also recorded: neither FV-810 nor FV-810^R709Q had detectable binding

inhibition of clotting activity of FV-810 (FV-DT) [9]: no longer inhibited
Molecule: acetylated BR peptide: BR peptide acetylated at all Lys residues and the N terminus (Ac-SRAWGESTPLANK(Ac)PGK(Ac)QSGHPK(Ac)FPRVRHK(Ac)SLQVRQDGGK(Ac)SRLK(Ac)K(Ac)SQFLIK(Ac)TRK(Ac)K(Ac)K(Ac)K(Ac)EK(Ac))

inhibition of clotting activity of rFVa/FVa [12]: not inhibited
B1: BR+AR peptide: FV residues 968-1007 and 1492-1538, juxtaposed BR and AR sequences from FV-B104 (peptide)
peptide: SGHPKFPRVRHKSLQVRQDGGKSRLKKSQFLIKTRKKKKETDYIEIIPKEEVQSSEDDYAEIDYVPYDDPYKTDVRTNINSSRDPDN
